# Source: patent publication US9663525B2, “Pyrazolopyrimidinyl inhibitors of ubiquitin-activating enzyme” (Millennium Pharmaceuticals, Inc., priority 2012, dated 2017)
# Molecular target: recombinant human UAE (Homo sapiens (Human), UniProt P22314)
# Assay: Ubiquitin Activating Enzyme (UAE) HTRF assay, human UAE
# Description: After incubation for 120 minutes, quantification of the FRET is performed on the Pherostar (BMG).
# For compounds whose values are marked with an asterisk (*), mouse UAE was used. For all other compounds, human UAE was used.
# Sequence of recombinant human UAE (P22314 whole entry): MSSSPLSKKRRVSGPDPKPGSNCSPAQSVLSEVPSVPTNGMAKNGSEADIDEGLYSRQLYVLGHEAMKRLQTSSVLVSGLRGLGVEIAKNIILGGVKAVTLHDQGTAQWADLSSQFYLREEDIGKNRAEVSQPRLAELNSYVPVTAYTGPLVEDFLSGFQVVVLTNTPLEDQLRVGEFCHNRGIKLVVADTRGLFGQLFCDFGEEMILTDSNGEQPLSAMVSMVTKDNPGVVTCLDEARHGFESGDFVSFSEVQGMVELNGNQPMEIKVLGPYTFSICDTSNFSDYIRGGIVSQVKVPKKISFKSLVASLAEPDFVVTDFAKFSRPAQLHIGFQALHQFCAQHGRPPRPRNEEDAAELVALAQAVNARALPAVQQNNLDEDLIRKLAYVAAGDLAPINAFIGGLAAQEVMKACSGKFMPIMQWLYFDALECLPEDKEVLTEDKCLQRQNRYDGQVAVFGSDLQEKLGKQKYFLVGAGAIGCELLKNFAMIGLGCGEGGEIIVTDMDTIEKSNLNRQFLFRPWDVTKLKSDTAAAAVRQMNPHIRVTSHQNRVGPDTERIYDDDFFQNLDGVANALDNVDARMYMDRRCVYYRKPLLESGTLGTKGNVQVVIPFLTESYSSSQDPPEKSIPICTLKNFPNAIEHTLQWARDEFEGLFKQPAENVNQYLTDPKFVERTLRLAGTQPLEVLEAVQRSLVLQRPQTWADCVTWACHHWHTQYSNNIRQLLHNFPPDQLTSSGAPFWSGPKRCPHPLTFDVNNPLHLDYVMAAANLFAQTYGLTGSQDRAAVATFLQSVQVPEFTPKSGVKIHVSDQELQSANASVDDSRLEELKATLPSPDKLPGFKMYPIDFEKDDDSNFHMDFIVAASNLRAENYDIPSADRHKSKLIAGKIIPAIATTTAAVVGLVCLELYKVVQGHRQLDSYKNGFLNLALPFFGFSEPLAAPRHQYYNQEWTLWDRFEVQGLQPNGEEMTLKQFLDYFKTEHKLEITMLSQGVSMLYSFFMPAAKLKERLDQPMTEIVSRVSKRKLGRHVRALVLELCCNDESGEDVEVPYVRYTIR
IC50,"% inhibition @0.111 μM (0.111 μM compound, human UAE)",Compound
< 10 nM,,"NS(=O)(=O)OC[C@H]1C[C@@H](Nc2ccnc3cc(-c4cccc(OC(F)F)c4)nn23)[C@H](O)[C@@H]1O (racemic) [Compound I-050, (rac)-((1R,2R,3S,4R)-4-((2-(3-(Difluoromethoxy)phenyl)pyrazolo[1,5-a-]pyrimidin-7-yl)amino)-2,3-dihydroxycyclopentyl)methyl rel-sulfamate]"
< 10 nM,,"NS(=O)(=O)OC[C@H]1C[C@@H](Nc2ccnc3cc(-c4c[nH]c5ccc(Cl)cc45)nn23)[C@H](O)[C@@H]1O (racemic) [Compound I-054, (rac)-[(1R,2R,3S,4R)-4-{[2-(5-chloro-1H-indol-3-yl)pyrazolo[1,5-a]pyrimidin-7-yl]amino}-2,3-dihydroxycyclopentyl]methyl rel-sulfamate]"
< 10 nM,,"NS(=O)(=O)OC[C@H]1C[C@@H](Nc2ccnc3cc(-c4c[nH]c5cc(Cl)ccc45)nn23)[C@H](O)[C@@H]1O (racemic) [Compound I-055, (rac)-[(1R,2R,3S,4R)-4-{[2-(6-chloro-1H-indol-3-yl)pyrazolo[1,5-a]pyrimidin-7-yl]amino}-2,3-dihydroxycyclopentyl]methyl rel-sulfamate]"
< 10 nM,,"NS(=O)(=O)OC[C@H]1C[C@@H](Nc2ccnc3cc(-c4cc(Cl)ccc4OC(F)(F)F)nn23)[C@H](O)[C@@H]1O (racemic) [Compound I-057, (rac)-((1R,2R,3S,4R)-4-(2-(5-chloro-2-(trifluoromethoxy)phenyl)pyrazolo[1,5-a]pyrimidin-7-ylamino)-2,3-dihydroxycyclopentyl)methyl rel-sulfamate]"
< 10 nM,,"CC(C)(c1cccc(-c2cc3nccc(N[C@@H]4C[C@H](COS(N)(=O)=O)[C@@H](O)[C@H]4O)n3n2)c1)C(F)(F)F (racemic) [Compound I-058, (rac)-((1R,2R,3S,4R)-2,3-dihydroxy-4-(2-(3-(1,1,1-trifluoro-2-methylpropan-2-yl)phenyl)pyrazolo[1,5-a]pyrimidin-7-ylamino)cyclopentyl)methyl rel-sulfamate]"
10 to 100 nM,,"NS(=O)(=O)OC[C@H]1C[C@@H](Nc2ccnc3cc(-c4ccnc(C(F)(F)F)c4)nn23)[C@H](O)[C@@H]1O (racemic) [Compound I-059, (rac)-((1R,2R,3S,4R)-2,3-dihydroxy-4-(2-(2-(trifluoromethyl)pyridin-4-yl)pyrazolo[1,5-a]pyrimidin-7-ylamino)cyclopentyl)methyl rel-sulfamate]"
10 to 100 nM,,"NS(=O)(=O)OC[C@H]1C[C@@H](Nc2ccnc3cc(-c4ccc(C(F)(F)F)s4)nn23)[C@H](O)[C@@H]1O (racemic) [Compound I-060, (rac)-((1R,2R,3S,4R)-2,3-Dihydroxy-4-((2-(5-(trifluoromethyl)thiophen-2-yl)pyrazolo[1,5-a]pyrimidin-7-yl)amino)cyclopentyl)methyl rel-sulfamate]"
,100%,"COc1ccc(C(C)(C)C)cc1-c1cc2nccc(N[C@@H]3C[C@H](COS(N)(=O)=O)[C@@H](O)[C@H]3O)n2n1 (racemic) [Compound I-063, (rac)-((1R,2R,3S,4R)-4-{[2-(5-tert-butyl-2-methoxyphenyl)pyrazolo[1,5-a]pyrimidin-7-yl]amino}-2,3-dihydroxycyclopentyl)methyl rel-sulfamate]"
10 to 100 nM,,"NS(=O)(=O)OC[C@H]1C[C@@H](Nc2ccnc3cc(-c4cccc(C(F)(F)F)n4)nn23)[C@H](O)[C@@H]1O (racemic) [Compound I-064, (rac)-((1R,2R,3S,4R)-2,3-dihydroxy-4-(2-(6-(trifluoromethyl)pyridin-2-yl)pyrazolo[1,5-a]pyrimidin-7-ylamino)cyclopentyl)methyl rel-sulfamate]"
< 10 nM,,"COc1ccc(C(F)(F)F)cc1-c1cc2nccc(N[C@@H]3C[C@H](COS(N)(=O)=O)[C@@H](O)[C@H]3O)n2n1 (racemic) [Compound I-065, (rac)-((1R,2R,3S,4R)-2,3-Dihydroxy-4-((2-(2-methoxy-5-(trifluoromethyl)phenyl)-pyrazolo[1,5-a]pyrimidin-7-yl)amino)cyclopentyl)methyl rel-sulfamate]"
< 10 nM,,"COc1ccc(OC(F)(F)F)cc1-c1cc2nccc(N[C@@H]3C[C@H](COS(N)(=O)=O)[C@@H](O)[C@H]3O)n2n1 (racemic) [Compound I-066, (rac)-((1R,2R,3S,4R)-2,3-Dihydroxy-4-((2-(2-methoxy-5-(trifluoromethoxy)-phenyl)pyrazolo[1,5-a]pyrimidin-7-yl)amino)cyclopentyl)methyl rel-sulfamate]"
< 10 nM,,"COc1cc(F)ccc1-c1cc2nccc(N[C@@H]3C[C@H](COS(N)(=O)=O)[C@@H](O)[C@H]3O)n2n1 (racemic) [Compound I-070, (rac)-((1R,2R,3S,4R)-4-(2-(4-fluoro-2-methoxyphenyl)pyrazolo[1,5-a]pyrimidin-7-ylamino)-2,3-dihydroxycyclopentyl)methyl rel-sulfamate]"
< 10 nM,,"NS(=O)(=O)OC[C@H]1C[C@@H](Nc2ccnc3cc(-c4csc5ccc(Cl)cc45)nn23)[C@H](O)[C@@H]1O (racemic) [Compound I-071, (rac)-((1R,2R,3S,4R)-4-(2-(5-chlorobenzo[b]thiophen-3-yl)pyrazolo[1,5-a]pyrimidin-7-ylamino)-2,3-dihydroxycyclopentyl)methyl rel-sulfamate]"
< 10 nM,,"COc1ccccc1-c1cc2nccc(N[C@@H]3C[C@H](COS(N)(=O)=O)[C@@H](O)[C@H]3O)n2n1 (racemic) [Compound I-072, (rac)-((1R,2R,3S,4R)-2,3-dihydroxy-4-(2-(2-methoyphenyl)pyrazolo[1,5-a]pyrimidin-7-ylamino)cyclopentyl)methyl rel-sulfamate]"

# The remaining lines, values behind:
Compound,IC50,"% inhibition @0.111 μM (0.111 μM compound, human UAE)"
"NS(=O)(=O)OC[C@H]1C[C@@H](Nc2ccnc3cc(-c4ccc5ccccc5n4)nn23)[C@H](O)[C@@H]1O (racemic) [Compound I-042, (rac)-((1R,2R,3S,4R)-2,3-dihydroxy-4-(2-(quinolin-2-yl)pyrazolo[1,5-a]pyrimidin-7-ylamino)cyclopentyl)methyl rel-sulfamate]",< 10 nM,
"NS(=O)(=O)OC[C@H]1C[C@@H](Nc2ccnc3cc(-c4ccc5cccnc5c4)nn23)[C@H](O)[C@@H]1O (racemic) [Compound I-043, (rac)-((1R,2R,3S,4R)-2,3-dihydroxy-4-(2-(quinolin-7-yl)pyrazolo[1,5-a]pyrimidin-7-ylamino)cyclopentyl)methyl rel-sulfamate]",< 10 nM,
"NS(=O)(=O)OC[C@H]1C[C@@H](Nc2ccnc3cc(-c4cccc5ccsc45)nn23)[C@H](O)[C@@H]1O (racemic) [Compound I-045, (rac)-((1R,2R,3S,4R)-4-((2-(Benzo[b]thiophen-7-yl)pyrazolo[1,5-a]pyrimidin-7-yl)amino)-2,3-dihydroxycyclopentyl)methyl rel-sulfamate]",< 10 nM,
"NS(=O)(=O)OC[C@H]1C[C@@H](Nc2ccnc3cc(-c4coc5ccccc45)nn23)[C@H](O)[C@@H]1O (racemic) [Compound I-049, (rac)-((1R,2R,3S,4R)-4-(2-(benzofuran-3-yl)pyrazolo[1,5-a]pyrimidin-7-ylamino)-2,3-dihydroxycyclopentyl)methyl rel-sulfamate]",< 10 nM,
"NS(=O)(=O)OC[C@H]1C[C@@H](Nc2ccnc3cc(-c4cccc(Oc5ccccc5)c4)nn23)[C@H](O)[C@@H]1O (racemic) [Compound I-051, (rac)-((1R,2R,3S,4R)-2,3-Dihydroxy-4-((2-(3-phenoxyphenyl)pyrazolo[1,5-a]pyrimidin-7-yl)amino)cyclopentyl)methyl rel-sulfamate]",10 to 100 nM,
"CC(C)(C)c1cccc(-c2cc3nccc(N[C@@H]4C[C@H](COS(N)(=O)=O)[C@@H](O)[C@H]4O)n3n2)n1 (racemic) [Compound I-052, (rac)-((1R,2R,3S,4R)-4-(2-(6-tert-butylpyridin-2-yl)pyrazolo[1,5-a]pyrimidin-7-ylamino)-2,3-dihydroxycyclopentyl)methyl rel-sulfamate]",< 10 nM,
"NS(=O)(=O)OC[C@H]1C[C@@H](Nc2ccnc3cc(-c4cccc5c4sc4ccccc45)nn23)[C@H](O)[C@@H]1O (racemic) [Compound I-056, (rac)-((1R,2R,3S,4R)-4-((2-(Dibenzo[b,d]thiophen-4-yl)pyrazolo[1,5-a]pyrimidin-7-yl)amino)-2,3-dihydroxycyclopentyl)methyl rel-sulfamate]",< 10 nM,
"NS(=O)(=O)OC[C@H]1C[C@@H](Nc2ccnc3cc(-c4cccc5sccc45)nn23)[C@H](O)[C@@H]1O (racemic) [Compound I-061, (rac)-((1R,2R,3S,4R)-4-((2-(Benzo[b]thiophen-4-yl)pyrazolo[1,5-a]pyrimidin-7-yl)amino)-2,3-dihydroxycyclopentyl)methyl rel-sulfamate]",< 10 nM,
"NS(=O)(=O)OC[C@H]1C[C@@H](Nc2ccnc3cc(-c4ccc5c(c4)[nH]c4ccccc45)nn23)[C@H](O)[C@@H]1O (racemic) [Compound I-062, (rac)-[(1R,2R,3S,4R)-4-{[2-(9H-carbazol-2-yl)pyrazolo[1,5-a]pyrimidin-7-yl]amino}-2,3-dihydroxycyclopentyl]methyl rel-sulfamate]",< 10 nM,
"NS(=O)(=O)OC[C@H]1C[C@@H](Nc2ccnc3cc(-c4ccccc4Oc4ccccc4)nn23)[C@H](O)[C@@H]1O (racemic) [Compound I-068, (rac)-((1R,2R,3S,4R)-2,3-dihydroxy-4-(2-(2-phenoxyphenyl)pyrazolo[1,5-a]pyrimidin-7-ylamino)cyclopentyl)methyl rel-sulfamate]",10 to 100 nM,
"NS(=O)(=O)OC[C@H]1C[C@@H](Nc2ccnc3cc(-c4cccc(Cc5ccccc5)c4)nn23)[C@H](O)[C@@H]1O (racemic) [Compound I-069, (rac)-((1R,2R,3S,4R)-4-(2-(3-benzylpenyl)pyrazolo[1,5-a]pyrimidin-7-ylamino)-2,3-dihydroxycyclopentyl)methyl rel-sulfamate]",10 to 100 nM,
"NS(=O)(=O)OC[C@H]1C[C@@H](Nc2ccnc3cc(-c4cccc(C(=O)c5ccccc5)c4)nn23)[C@H](O)[C@@H]1O (racemic) [Compound I-073, (rac)-((1R,2R,3S,4R)-4-(2-(3-benzoylphenyl)pyrazolo[1,5-a]pyrimidin-7-ylamino)-2,3-dihydroxycyclopentyl)methyl rel-sulfamate]",10 to 100 nM,
